Literature values, collected in patent US8568779B2, “Method for producing coenzyme Q10 particle” (Kaneka Corporation, priority 2007, dated 2013).

Details: composition containing reduced coenzyme Q10 versus oxidized coenzyme Q10 alone

COc1c(O)c(C)c(C/C=C(\C)CC/C=C(\C)CC/C=C(\C)CC/C=C(\C)CC/C=C(\C)CC/C=C(\C)CC/C=C(\C)CC/C=C(\C)CC/C=C(\C)CCC=C(C)C)c(O)c1OC [reduced coenzyme Q10]
oral absorbability: superior to conventional oxidized coenzyme Q10 alone
